Assay: logP determination by HPLC (EEC-Directive 79/831 Annex V. A8)
Type: physicochemical
Conditions: gradient method, acetonitrile/0.1% aqueous phosphoric acid

Row | Compound | chromatographic logP | logP
1 | CON=C(C(=O)N(C)SC(=O)OC)c1ccccc1COc1ccccc1C [Example 1, 2-methoximino-2-[2-(methylphenoxy)-methylphenyl]-N-methyl-N-methoxycarbonylthio-acetamide] | 4.25 | –
2 | CON=C(C(=O)N(C)SC(F)(Cl)Cl)c1ccccc1Oc1ncnc(Oc2ccccc2Br)c1F [Example 2, 2-{2-[6-(2-bromo-phenoxy)-5-fluoro-pyrimidin-4-yloxy]-phenyl}-N-(dichlorofluoro-methyl-sulphanyl)-2-methoxyimino-N-methylacetamide] | 5.1 | –
3 | CON=C(C(=O)N(C)SC(F)(Cl)Cl)c1ccccc1Oc1ncnc(Oc2ccccc2Cl)c1F [Example 3] | – | 5.05
4 | CON=C(C(=O)NC#N)c1ccccc1COc1ccccc1C [Example 4] | – | 3.34
5 | CON=C(C(=O)N(C)SC(F)(Cl)Cl)c1ccccc1COc1ccccc1C [Example 5] | – | 5.35
6 | CON=C(C(=O)N(C)SC(Cl)(Cl)Cl)c1ccccc1COc1ccccc1C [Example 6] | – | 5.56
7 | CON=C(C(=O)N(C)Sc1ccc(F)cc1)c1ccccc1COc1ccccc1C [Example 7] | – | 5.11
8 | CON=C(C(=O)N(C)SN(C)C(=O)OC)c1ccccc1COc1ccccc1C [Example 8] | – | 4.24
9 | CCCCN(CCCC)SN(C)C(=O)C(=NOC)c1ccccc1COc1ccccc1C [Example 9] | – | 6.83
10 | CON=C(C(=O)N(C)C#N)c1ccccc1COc1ccccc1C [Example 10] | – | 3.67
11 | CON=C(C(=O)N(C)Sc1ccc(OC)cc1)c1ccccc1COc1ccccc1C [Example 11] | – | 4.98
12 | CCOC(=O)N(C)C(=O)C(=NOC)c1ccccc1COc1ccccc1C [Example 12] | – | 4.46
13 | CON=C(C(=O)N(C)Sc1ccc(C(=O)OC)cc1)c1ccccc1COc1ccccc1C [Example 13] | – | 4.89
14 | CON=C(C(=O)N(C)C(=O)OCC(C)C)c1ccccc1COc1ccccc1C [Example 14] | – | 5.21
15 | CCCCOP(=O)(OC)N(C)C(=O)C(=NOC)c1ccccc1COc1ccccc1C (stereo not drawn) [Example 15] | – | 4.53
16 | CON=C(C(=O)N(C)C(=O)N(C)SC(F)(Cl)Cl)c1ccccc1COc1ccccc1C [Example 16] | – | 5.08
17 | CON=C(C(=O)N(C)C(=O)N(C)C)c1ccccc1COc1ccccc1C [Example 17] | – | 3.38
18 | CON=C(C(=O)N(C)S(C)(=O)=O)c1ccccc1COc1ccccc1C [Example 18] | – | 3.82
19 | CCOCN(C)C(=O)C(=NOC)c1ccccc1COc1ccccc1C [Example 19] | – | 4.02
20 | CON=C(C(=O)N(C)Sc1ccc(Cl)cc1)c1ccccc1COc1ccccc1C [Example 20] | – | 5.53
21 | CON=C(C(=O)N(C)Sc1ccccc1)c1ccccc1COc1ccccc1C [Example 21] | – | 5.11
22 | CON=C(C(=O)N(C)Sc1cccc(C(F)(F)F)c1)c1ccccc1COc1ccccc1C [Example 22] | – | 5.5
23 | CON=C(C(=O)N(C)Sc1ccc(OC(F)(F)F)c(Cl)c1)c1ccccc1COc1ccccc1C [Example 23] | – | 5.99
24 | CON=C(C(=O)N(C)Sc1ccc(C)cc1)c1ccccc1COc1ccccc1C [Example 24] | – | 5.45

Row | Compound | chromatographic logP | logP
25 | CON=C(C(=O)N(C)Sc1ccc(Cl)c(C(F)(F)F)c1)c1ccccc1COc1ccccc1C [Example 25] | – | 5.8
26 | CON=C(C(=O)N(C)C(=O)C(=O)OC)c1ccccc1COc1ccccc1C [Example 26] | – | 3.96
27 | CCSC(=O)N(C)C(=O)C(=NOC)c1ccccc1COc1ccccc1C [Example 27] | – | 4.91
28 | CON=C(C(=O)NSC(F)(Cl)Cl)c1ccccc1COc1ccccc1C [Example 28] | – | 4.32
29 | CCOC(=O)N(C(=O)OCC)C(=O)C(=NOC)c1ccccc1COc1ccccc1C [Example 29] | – | 4.42
30 | CCOC(=O)N(SC(F)(Cl)Cl)C(=O)C(=NOC)c1ccccc1COc1ccccc1C [Example 30] | – | 5.35
31 | CNC(=O)N(C)C(=O)C(=NOC)c1ccccc1COc1ccccc1C [Example 31] | – | 3.29
32 | CON=C(C(=O)N(C)SC(F)(Cl)Cl)c1ccccc1CON=C(C)c1cccc(C(F)(F)F)c1 [Example 32] | – | 5.74
33 | CON=C(C(=O)N(C)C(=O)OC)c1ccccc1COc1ccccc1C [Example 33] | – | 4.11
34 | CON=C(C(=O)N(C)C(=O)N(SC(F)(Cl)Cl)c1ccc(Cl)cc1)c1ccccc1COc1ccccc1C [Example 34] | – | 6.21
35 | CCS(=O)(=O)N(C)C(=O)N(C)C(=O)C(=NOC)c1ccccc1COc1ccccc1C [Example 35] | – | 4.05
36 | CON=C(C(=O)N(C)C(=O)N1CCOCC1)c1ccccc1COc1ccccc1C [Example 36] | – | 3.32
37 | CON=C(C(=O)N(C)C(=O)OCCBr)c1ccccc1COc1ccccc1C [Example 37] | – | 4.6
38 | CCOC(=O)N(C)C(=O)C(=NOC)c1ccccc1CON=C(C)c1cccc(C(F)(F)F)c1 [Example 38] | – | 4.91
39 | CCOCN(C)C(=O)C(=NOC)c1ccccc1CON=C(C)c1cccc(C(F)(F)F)c1 [Example 39] | – | 4.58
40 | CON=C(C(=O)N(C)SC(=O)OC)c1ccccc1CON=C(C)c1cccc(C(F)(F)F)c1 [Example 40] | – | 4.75
41 | CCOC(=O)N(C)C(=O)C(=NOC)c1ccccc1Oc1ccccc1 [Example 41] | – | 3.59
42 | CCOCN(C)C(=O)C(=NOC)c1ccccc1Oc1ccccc1 [Example 42] | – | 3.36
43 | CON=C(C(=O)N(C)SC(=O)OC)c1ccccc1Oc1ccccc1 [Example 43] | – | 3.59
44 | CON=C(C(=O)N(C)SC(F)(Cl)Cl)c1ccccc1Oc1ccc(OC(F)(F)F)cc1Cl [Example 44] | – | 5.87
45 | CON=C(C(=O)N(C)SN(C)C(=O)C(=NOC)c1ccccc1COc1ccccc1C)c1ccccc1COc1ccccc1C [Example 45] | 6.1 | –
46 | CON=C(C(=O)N(C)SC(F)(Cl)Cl)c1ccccc1Oc1ccccc1 [Example 47] | – | 4.75
47 | CON=C(C(=O)N(C)Sc1ccc(OC)cc1)c1ccccc1Oc1ccccc1 [Example 48] | – | 4.31

Continued, values first:

Row | chromatographic logP | logP | Compound
48 | – | 4.53 | CON=C(C(=O)N(C)C(=O)N(C)SC(F)(Cl)Cl)c1ccccc1Oc1ccccc1 [Example 49]
49 | – | 4.38 | CON=C(C(=O)N(C)SC(F)(F)F)c1ccccc1Oc1ccccc1 [Example 50]
50 | – | 6.61 | CON=C(C(=O)N(SC(F)(Cl)Cl)SC(F)(Cl)Cl)c1ccccc1COc1ccccc1C [Example 51]
51 | – | 4.55 | CCSN(C)C(=O)C(=NOC)c1ccccc1COc1ccccc1C [Example 52]
52 | – | 5.74 | CCN(SC(F)(Cl)Cl)C(=O)C(=NOC)c1ccccc1COc1ccccc1C [Example 53]
53 | – | 4.22 | CON=C(C(=O)N(C)SC)c1ccccc1COc1ccccc1C [Example 54]
54 | – | 5.05 | CON=C(C(=O)N(C)SC(C)(C)C)c1ccccc1COc1ccccc1C [Example 55]
55 | – | 4.93 | CON=C(C(=O)N(C)SC(F)(F)F)c1ccccc1COc1ccccc1C [Example 56]
56 | – | 4.62 | CON=C(C(=O)N(C)SC(C)(F)F)c1ccccc1COc1ccccc1C [Example 57]
57 | – | 5.59 | CCSCc1ccccc1OCc1ccccc1C(=NOC)C(=O)N(C)SC(F)(Cl)Cl [Example 58]
58 | – | 4.75 | CON=C(C(=O)N(C)C(=O)N(C)SC(F)(F)F)c1ccccc1COc1ccccc1C [Example 59]
59 | – | 5.58 | CON=C(C(=O)N(SC(F)(Cl)Cl)C1CC1)c1ccccc1COc1ccccc1C [Example 60]
60 | – | 5.17 | CON=C(C(=O)N(SC(F)(F)F)C1CC1)c1ccccc1COc1ccccc1C [Example 61]
61 | – | 5.3 | CCN(SC(F)(F)F)C(=O)C(=NOC)c1ccccc1COc1ccccc1C [Example 62]
62 | – | 5.77 | CON=C(C(=O)N(C)SC(F)(Cl)Cl)c1ccccc1COc1cccc(-c2ccccc2)c1 [Example 65]
63 | – | 5.36 | CON=C(C(=O)N(C)SC(F)(F)F)c1ccccc1COc1cccc(-c2ccccc2)c1 [Example 66]
64 | – | 5.68 | CON=C(C(=O)N(C)SC(F)(Cl)Cl)c1ccccc1COc1cc(C)ccc1C [Example 67]

Row | chromatographic logP | logP | Compound
65 | – | 5.25 | CON=C(C(=O)N(C)SC(F)(F)F)c1ccccc1COc1cc(C)ccc1C [Example 68]
66 | – | 4.86 | CON=C(C(=O)N(C)SC(F)(Cl)Cl)c1ccccc1COc1cc(F)ccc1F [Example 69]
67 | – | 4.48 | CON=C(C(=O)N(C)SC(F)(F)F)c1ccccc1COc1cc(F)ccc1F [Example 70]
68 | – | 4.73 | CON=C(C(=O)N(C)SC)c1ccccc1CON=C(C)c1cccc(C(F)(F)F)c1 [Example 71]
69 | – | 5.48 | CON=C(C(=O)N(C)Sc1ccccc1)c1ccccc1CON=C(C)c1cccc(C(F)(F)F)c1 [Example 72]
70 | – | 5.02 | CCSN(C)C(=O)C(=NOC)c1ccccc1CON=C(C)c1cccc(C(F)(F)F)c1 [Example 73]
71 | – | 5.84 | CON=C(C(=O)N(C)Sc1cccc(C(F)(F)F)c1)c1ccccc1CON=C(C)c1cccc(C(F)(F)F)c1 [Example 74]
72 | – | 5.36 | CON=C(C(=O)N(C)SC(F)(F)F)c1ccccc1CON=C(C)c1cccc(C(F)(F)F)c1 [Example 75]
73 | – | 5.22 | CON=C(C(=O)N(C)C(=O)N(C)SC(F)(F)F)c1ccccc1CON=C(C)c1cccc(C(F)(F)F)c1 [Example 76]
74 | – | 5.79 | CON=C(C(=O)N(C)SC(F)(Cl)Cl)c1ccccc1CON=C(C)c1cccc(Cl)c1 [Example 77]
75 | – | 5.39 | CON=C(C(=O)N(C)SC(F)(F)F)c1ccccc1CON=C(C)c1cccc(Cl)c1 [Example 78]
76 | – | 4.7 | CON=C(C(=O)N(C)SC(F)(Cl)Cl)c1ccccc1CON=C(C)c1ccc(OC)c(OC)c1 [Example 79]
77 | – | 4.36 | CON=C(C(=O)N(C)SC(F)(F)F)c1ccccc1CON=C(C)c1ccc(OC)c(OC)c1 [Example 80]
78 | – | 4.71 | CON=C(C(=O)N(C)SC(=O)OC)c1ccccc1CON=C(C)c1cccc(Cl)c1 [Example 81]
79 | – | 3.7 | CON=C(C(=O)N(C)SC(=O)OC)c1ccccc1CON=C(C)c1ccc(OC)c(OC)c1 [Example 82]
80 | – | 5.36 | CON=C(C(=O)N(C)SC(F)(Cl)Cl)c1ccccc1CON=C(C)c1cccc(F)c1 [Example 83]
81 | – | 4.97 | CON=C(C(=O)N(C)SC(F)(F)F)c1ccccc1CON=C(C)c1cccc(F)c1 [Example 84]
